{"source": "PubChem BioAssay (NCI)", "experiment_in_all_cases": "NCI anticancer screen, dose series, 48 h", "key": {"[1]": {"system": "786-0 renal"}, "[2]": {"system": "A498 renal"}, "[3]": {"system": "CAKI-1 renal"}, "[4]": {"system": "HL-60(TB) leukemia"}, "[5]": {"system": "HOP-92 NSCLC"}, "[6]": {"system": "MOLT-4 leukemia"}, "[7]": {"system": "NCI-H226 lung"}, "[8]": {"system": "PC-3 prostate"}, "[9]": {"system": "RPMI-8226 leukemia"}, "[10]": {"system": "SK-MEL-28 melanoma"}, "[11]": {"system": "SNB-19 CNS"}, "[12]": {"system": "UO-31 renal"}}, "note": "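Cultured in 96-well plates, cells were exposed to test compound for 48 hours across five concentrations. TGI: concentration producing complete growth inhibition.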", "data": [{"smiles": "CC(C)(C)OC(=O)N(CCCCN(CCCNC(=O)C(F)(F)F)C(=O)OC(C)(C)C)CCCNC(=O)C(F)(F)F", "values": [{"measurement": "TGI", "setting": "[1]", "result": "> 100", "unit": "µM"}, {"measurement": "TGI", "setting": "[2]", "result": "> 100", "unit": "µM"}, {"measurement": "TGI", "setting": "[3]", "result": "> 100", "unit": "µM"}, {"measurement": "TGI", "setting": "[4]", "result": "> 100", "unit": "µM"}, {"measurement": "TGI", "setting": "[5]", "result": "> 100", "unit": "µM"}, {"measurement": "TGI", "setting": "[6]", "result": "> 100", "unit": "µM"}, {"measurement": "TGI", "setting": "[7]", "result": "> 100", "unit": "µM"}, {"measurement": "TGI", "setting": "[8]", "result": "> 100", "unit": "µM"}, {"measurement": "TGI", "setting": "[9]", "result": "> 100", "unit": "µM"}, {"measurement": "TGI", "setting": "[10]", "result": "> 100", "unit": "µM"}, {"measurement": "TGI", "setting": "[11]", "result": "> 100", "unit": "µM"}, {"measurement": "TGI", "setting": "[12]", "result": "> 100", "unit": "µM"}]}, {"smiles": "O=C(/C=C/c1ccccc1)Oc1cccc(O)c1", "values": [{"measurement": "TGI", "setting": "[1]", "result": "> 100", "unit": "µM"}, {"measurement": "TGI", "setting": "[2]", "result": "> 100", "unit": "µM"}, {"measurement": "TGI", "setting": "[3]", "result": "> 100", "unit": "µM"}, {"measurement": "TGI", "setting": "[4]", "result": 41.2, "unit": "µM"}, {"measurement": "TGI", "setting": "[5]", "result": "> 100", "unit": "µM"}, {"measurement": "TGI", "setting": "[6]", "result": 21.8, "unit": "µM"}, {"measurement": "TGI", "setting": "[7]", "result": "> 100", "unit": "µM"}, {"measurement": "TGI", "setting": "[8]", "result": "> 100", "unit": "µM"}, {"measurement": "TGI", "setting": "[9]", "result": "> 100", "unit": "µM"}, {"measurement": "TGI", "setting": "[10]", "result": 66.8, "unit": "µM"}, {"measurement": "TGI", "setting": "[11]", "result": 76.1, "unit": "µM"}, {"measurement": "TGI", "setting": "[12]", "result": "> 100", "unit": "µM"}]}, {"smiles": "Cc1c(C)c2c(c(N)c1C#N)C(=O)N(NC(=O)c1ccccc1)C2=O", "values": [{"measurement": "TGI", "setting": "[1]", "result": "> 100", "unit": "µM"}, {"measurement": "TGI", "setting": "[2]", "result": "> 100", "unit": "µM"}, {"measurement": "TGI", "setting": "[3]", "result": "> 100", "unit": "µM"}, {"measurement": "TGI", "setting": "[4]", "result": "> 100", "unit": "µM"}, {"measurement": "TGI", "setting": "[5]", "result": "> 100", "unit": "µM"}, {"measurement": "TGI", "setting": "[6]", "result": "> 100", "unit": "µM"}, {"measurement": "TGI", "setting": "[7]", "result": "> 100", "unit": "µM"}, {"measurement": "TGI", "setting": "[8]", "result": "> 100", "unit": "µM"}, {"measurement": "TGI", "setting": "[9]", "result": "> 100", "unit": "µM"}, {"measurement": "TGI", "setting": "[10]", "result": "> 100", "unit": "µM"}, {"measurement": "TGI", "setting": "[11]", "result": "> 100", "unit": "µM"}, {"measurement": "TGI", "setting": "[12]", "result": "> 100", "unit": "µM"}]}]}
